Values quoted from earlier work as cited in patent publication US20080044468A1, “Processes For The Preparation Of Oral Dosage Formulations Of Modafinil” (priority 2002, published 2008).

Settings: background statement

In the case of `NC(=O)C[S+]([O-])C(c1ccccc1)c1ccccc1` (stereo not shown) [modafinil], the Solubility in water is listed as “less than 1 mg/ml”.
